Among the data in US7704995B2 (Exelixis, Inc., priority 2003, dated 2010) are IC50 values, retold here.

As a reminder, the IC50 is the concentration at which inhibition is half-maximal.

The structures appear in SMILES notation.

In one assay the target is T1, Chk1 (Homo sapiens, UniProt O14757).
T1 construct: purchased Upstate Biotechnology
T1 sequence (O14757 1-476): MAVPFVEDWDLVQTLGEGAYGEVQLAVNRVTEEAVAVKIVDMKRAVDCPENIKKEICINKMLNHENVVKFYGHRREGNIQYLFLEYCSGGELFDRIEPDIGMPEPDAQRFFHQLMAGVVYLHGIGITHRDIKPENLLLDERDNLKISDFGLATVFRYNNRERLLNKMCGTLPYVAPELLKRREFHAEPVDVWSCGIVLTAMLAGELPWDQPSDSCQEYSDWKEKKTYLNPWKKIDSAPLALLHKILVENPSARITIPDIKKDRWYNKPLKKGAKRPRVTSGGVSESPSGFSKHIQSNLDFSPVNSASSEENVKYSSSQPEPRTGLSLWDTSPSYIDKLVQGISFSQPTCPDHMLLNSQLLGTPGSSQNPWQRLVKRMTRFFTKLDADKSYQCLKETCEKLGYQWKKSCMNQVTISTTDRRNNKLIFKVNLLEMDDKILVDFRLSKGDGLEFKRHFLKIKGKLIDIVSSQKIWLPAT
Put plainly: Chk1 kinase assay: incorporation of γ-33P ATP into immobilized myelin basic protein. It counts as biochemical. Conditions: Table 11, Chk1 only; class symbols A-D; read-out: Chk1 IC50. On the procedure:
Chk1 and Chk2 assays were performed by measuring incorporation of γ-^33P ATP into immobilized myelin basic protein (MBP). High binding white 384 well plates (Greiner) were coated with MBP (Sigma #M-1891) by incubation of 60 ul/well of 20 μg/ml MBP in Tris-buffered saline (TBS; 50 mM Tris pH 8.0, 138 mM NaCl, 2.7 mM KCl) for 24 hours at 4° C. Plates were washed 3× with 100 μl TBS. Kinase reactions were carried out in a total volume of 34 μl in kinase buffer (5 mM Hepes pH 7.6, 15 mM NaCl, 0.01% bovine gamma globulin (Sigma #I-5506), 10 mM MgCl2, 1 mM DTT, 0.02% TritonX-100). Compound dilutions were performed in DMSO and added to assay wells to a final DMSO concentration of 1%. Each data point was measured in duplicate, and at least two duplicate assays were performed for each individual compound determination. Chk1 and Chk2 enzymes (Upstate Biotechnology) were added to final concentrations of 10 nM (Chk1) or 20 nM (Chk2). A mixture of unlabeled ATP and γ-^33P ATP was added to start the reaction (2×10^6 cpm of γ-^33P ATP per well (3000 Ci/mmole) and either 10 μM or 30 μM unlabeled ATP (for Chk1 and Chk2 assays respectively). The reaction was carried out for 1 hour at room temperature with shaking. Plates were washed 7× with TBS, followed by the addition of 50 μl/well scintillation fluid (Wallac). Plates were read using a Wallac Trilux counter. This is only one format of such assays, various other formats are possible, as known to those skilled in the art.
The above assay procedure can be used to determine the IC50 for inhibition and/or the inhibition constant Ki. The IC50 is defined as the concentration of compound required to reduce the enzyme activity by 50% under the conditions of the assay. […] The Ki for a compound may be determined from the IC50 based on three assumptions. First, only one compound molecule binds to the enzyme and there is no cooperativity. […] Third, the enzymatic rate of the enzyme-inhibitor complex is zero. The rate (i.e., compound concentration) data are fitted to the equation: […]
Regarding `COc1cccc(CNC(=O)c2cccc(-c3cnc(N)c(C(=O)N[C@H]4CCCNC4)n3)c2)c1` [Example 1039, 3-amino-6-[3-({[(3-methoxyphenyl)methyl]amino}carbonyl)phenyl]-N-[(3S)-piperidin-3-yl]pyrazine-2-carboxamide], the IC50 was below 50 nM.

On to `CSc1ccccc1NC(=O)NCc1cccc(-c2cnc(N)c(C(=O)N[C@H]3CCCNC3)n2)c1` [Example 920, 3-amino-6-(3-{[({[2-(methylthio)phenyl]amino}carbonyl)amino]methyl}phenyl)-N-[(3S)-piperidin-3-yl]pyrazine-2-carboxamide], for which the IC50 is below 50 nM. On to `Cc1cc(C)cc(CNC(=O)c2cccc(-c3cnc(N)c(C(=O)N[C@H]4CCCNC4)n3)c2)c1` [Example 1037, 3-amino-6-[3-({[(3,5-dimethylphenyl)methyl]amino}carbonyl)phenyl]-N-[(3S)-piperidin-3-yl]pyrazine-2-carboxamide], for which the half-maximal inhibitory concentration (IC50) was below 50 nM. In the case of `Nc1ncc(-c2cccc(NC(=O)Cc3cccc(C(F)(F)F)c3)c2)nc1C(=O)N[C@H]1CCCNC1` [Example 976, 3-amino-N-[(3S)-piperidin-3-yl]-6-[3-({[3-(trifluoromethyl)phenyl]acetyl}amino)phenyl]pyrazine-2-carboxamide], the IC50 is below 50 nM. Turning to `Nc1ncc(-c2cccc(NC(=O)Cc3ccc(F)cc3Cl)c2)nc1C(=O)N[C@H]1CCCNC1` [Example 888, 3-amino-6-(3-{[(2-chloro-4-fluorophenyl)acetyl]amino}phenyl)-N-[(3S)-piperidin-3-yl]pyrazine-2-carboxamide], the IC50 is below 50 nM.

The same assay, now with this note: Table 11; Chk1 only; read-out: Chk1 IC50.
Consider `Nc1ncc(-c2cccc(C(=O)NC3CCOc4ccccc43)c2)nc1C(=O)N[C@H]1CCNC1` (stereo partly drawn) [Example 778, 3-amino-6-{3-[(3,4-dihydro-2H-chromen-4-ylamino)carbonyl]phenyl}-N-[(3S)-pyrrolidin-3-yl]pyrazine-2-carboxamide], for which the IC50 lay within 50 to 1000 nM.

In the case of `COC(=O)c1nc(-c2cccc(CNC3CCc4c(F)ccc(F)c43)c2)cnc1N` (centres unmarked) [Example 455, methyl 3-amino-6-(3-{[(4,7-difluoro-2,3-dihydro-1H-inden-1-yl)amino]methyl}phenyl)pyrazine-2-carboxylate], the IC50 was in the range of 50 to 1000 nM.

Turning to `CC(C)(C)OC(=O)N1CC[C@H](NC(=O)c2nc(-c3cccc(C(=O)NCCc4ccccc4)c3)cnc2N)C1` [Example 712, 1,1-dimethylethyl (3S)-3-({[3-amino-6-(3-{[(2-phenylethyl)amino]carbonyl}phenyl)pyrazin-2-yl]carbonyl}amino)pyrrolidine-1-carboxylate], the IC50 was at least 10000 nM. In the case of `CNC(=O)c1cc(-c2cccc(CN[C@H]3CCc4ccccc43)c2)cnc1N` [Example 509, 2-amino-5-(3-{[(1S)-2,3-dihydro-1H-inden-1-ylamino]methyl}phenyl)-N-methylpyridine-3-carboxamide], the IC50 fell in the range of 50 to 1000 nM. As for `CNC(=O)c1nc(-c2cccc(CNC3CCc4cc(Br)ccc43)c2)cnc1N` (centres unmarked) [Example 461, 3-amino-6-(3-{[(5-bromo-2,3-dihydro-1H-inden-1-yl)amino]methyl}phenyl)-N-methylpyrazine-2-carboxamide], the IC50 lay in the range of 50 to 1000 nM. With `Nc1ncc(-c2cccc(C(=O)N[C@@H]3c4ccccc4C[C@@H]3O)c2)nc1C(=O)N[C@H]1CCNC1` [Example 726, 3-amino-6-[3-({[(1R,2S)-2-hydroxy-2,3-dihydro-1H-inden-1-yl]amino}carbonyl)phenyl]-N-[(3S)-pyrrolidin-3-yl]pyrazine-2-carboxamide], the IC50 was below 50 nM. `CC(C)(C)OC(=O)N1CC[C@H](NC(=O)c2nc(-c3cccc(C(=O)N[C@H]4CCc5ccccc54)c3)cnc2N)C1` [Example 709, 1,1-dimethylethyl (3S)-3-({[3-amino-6-(3-{[(1S)-2,3-dihydro-1H-inden-1-ylamino]carbonyl}phenyl)pyrazin-2-yl]carbonyl}amino)pyrrolidine-1-carboxylate]: the IC50 was at least 10000 nM.

Take `Nc1ncc(-c2cccc(C(=O)N[C@H]3CCc4ccccc43)c2)nc1C(=O)NC[C@@H]1CCNC1` [Example 753, 3-amino-6-(3-{[(1S)-2,3-dihydro-1H-inden-1-ylamino]carbonyl}phenyl)-N-[(3R)-pyrrolidin-3-ylmethyl]pyrazine-2-carboxamide]: the IC50 is below 50 nM. In the case of `CC(C)(C)OC(=O)N1CCC[C@H](NC(=O)c2nc(-c3cccc(C(=O)N[C@@H]4c5ccccc5C[C@@H]4O)c3)cnc2N)C1` [Example 777, 1,1-dimethylethyl (3S)-3-[({3-amino-6-[3-({[(1R,2S)-2-hydroxy-2,3-dihydro-1H-inden-1-yl]amino}carbonyl)phenyl]pyrazin-2-yl}carbonyl)amino]piperidine-1-carboxylate], the IC50 is below 50 nM. With `CCCc1ccc(CNCc2cccc(-c3cnc(N)c(C(=O)NC)n3)c2)cc1` [Example 443, 3-amino-N-methyl-6-[3-({[(4-propylphenyl)methyl]amino}methyl)phenyl]pyrazine-2-carboxamide], the IC50 lay in the range of 50 to 1000 nM.

Staying with this assay, now noted: read-out: Chk1 IC50.
`CNC(=O)c1nc(-c2cccc(OCCN3CCN(c4ccccc4)CC3)c2)cnc1N` [Example 181, 3-amino-N-methyl-6-(3-{[2-(4-phenylpiperazin-1-yl)ethyl]oxy}phenyl)pyrazine-2-carboxamide]: the IC50 lay in the range of 50 to 1000 nM. For the molecule `CNC(=O)c1nc(-c2cccc(OCCN3CCC(O)C3)c2)cnc1N` (centres unmarked) [Example 177, 3-amino-6-(3-{[2-(3-hydroxypyrrolidin-1-yl)ethyl]oxy}phenyl)-N-methylpyrazine-2-carboxamide], the IC50 lay in the range of 1000 to 10000 nM. Consider `CNC(=O)c1nc(-c2cccc(CNCc3ccc(Cl)cc3F)c2)cnc1N` [Example 425, 3-amino-6-[3-({[(4-chloro-2-fluorophenyl)methyl]amino}methyl)phenyl]-N-methylpyrazine-2-carboxamide], for which the IC50 is 50 to 1000 nM. On the same count and under the same terms, for `CNC(=O)c1nc(-c2cnc(N)c(C(=O)NC)n2)cnc1N` [Example 266, 5,5′-diamino-N,N′-dimethyl-2,2′-bipyrazine-6,6′-dicarboxamide] the value was at least 10000 nM; for `CNC(=O)c1nc(-c2cccc(C(=O)NCc3ccccc3OC)c2)cnc1N` [Example 325, 3-amino-N-methyl-6-{3-[({[2-(methyloxy)phenyl]methyl}amino)carbonyl]phenyl}pyrazine-2-carboxamide], 50 to 1000 nM.

For `CNC(=O)c1nc(-c2cccc(CNC(=O)Cc3c[nH]c4ccccc34)c2)cnc1N` [Example 336, 3-amino-6-(3-{[(1H-indol-3-ylacetyl)amino]methyl}phenyl)-N-methylpyrazine-2-carboxamide], the IC50 lay within 50 to 1000 nM.

Turning to `CNC(=O)c1nc(-c2cccc(C(=O)NCc3ccc(C)c(C)c3)c2)cnc1N` [Example 286, 3-amino-6-[3-({[(3,4-dimethylphenyl)methyl]amino}carbonyl)phenyl]-N-methylpyrazine-2-carboxamide], the IC50 fell in the range of 50 to 1000 nM. Turning to `CCN(CC)CCOc1cccc(-c2cnc(N)c(C(=O)NC)n2)c1` [Example 179, 3-amino-6-(3-{[2-(diethylamino)ethyl]oxy}phenyl)-N-methylpyrazine-2-carboxamide], the half-maximal inhibitory concentration (IC50) fell in the range of 50 to 1000 nM. As to `CNC(=O)c1nc(-c2cccc(CNCc3ccccc3N3CCCCC3)c2)cnc1N` [Example 404, 3-amino-N-methyl-6-[3-({[(2-piperidin-1-ylphenyl)methyl]amino}methyl)phenyl]pyrazine-2-carboxamide], the IC50 lay within 50 to 1000 nM. As to `NC(=O)c1nc(-c2ccccc2)cnc1NCc1ccccc1` [Example 39, 6-phenyl-3-[(phenylmethyl)amino]pyrazine-2-carboxamide], the IC50 was at least 10000 nM. The same measure, in the same setting: for `CNC(=O)c1nc(-c2cccc(NC(=O)Cc3ccc4c(c3)OCO4)c2)cnc1N` [Example 369, 3-amino-6-{3-[(1,3-benzodioxol-5-ylacetyl)amino]phenyl}-N-methylpyrazine-2-carboxamide] the value was 50 to 1000 nM.
